For assay [1], the system named is MLKL phosphorylation in HT29-L23 human colorectal adenocarcinoma cells. Briefly: MLKL Phosphorylation High-Content Assay. The assay is classed as cell-based. The settings on record: necroptosis induced with TNFα, SMAC mimetic and Z-VAD, 6 h, read-out: pMLKL (IC50). The essentials: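 HT29-L23 cells pretreated 30 min at 37 °C with compound (6.25 to 0.106 μM final), then necroptosis induced with TNFα 35 ng/mL, SMAC mimetic 700 nM and Z-VAD 140 nM for 6 h. Fixed cells immunostained for MLKL pS358 and imaged; IC50 and Ymax from 4-parameter logistic fit.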

Assay [2] addresses His-GST-TVMV-hRIPK1(1-324) (Homo sapiens (Human), UniProt Q13546). Put plainly: RIPK1 HTRF Binding Assay. Conditions: HTRF binding, 1 h at rt, read-out: RIPK1 (IC50). The essentials:
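HTRF probe-displacement binding: 1 nM His-GST-TVMV-hRIPK1(1-324) (baculovirus construct), 90.6 nM probe, 0.2 nM anti-GST-Tb in 20 mM HEPES, 10 mM MgCl2, 0.015% Brij-35, 4 mM DTT, 0.05 mg/mL BSA. Incubated 1 h at rt; FRET 520/495 nm ratio, inhibition relative to DMSO-only wells.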
For orientation: Time-resolved FRET reads energy transfer from a long-lived donor to a nearby acceptor.

Structures can show the parent of a compound that is named as a salt. Where two headings read alike, the source gives them in different places.

His-GST-TVMV-hRIPK1(1-324), sequence (Q13546 1-324): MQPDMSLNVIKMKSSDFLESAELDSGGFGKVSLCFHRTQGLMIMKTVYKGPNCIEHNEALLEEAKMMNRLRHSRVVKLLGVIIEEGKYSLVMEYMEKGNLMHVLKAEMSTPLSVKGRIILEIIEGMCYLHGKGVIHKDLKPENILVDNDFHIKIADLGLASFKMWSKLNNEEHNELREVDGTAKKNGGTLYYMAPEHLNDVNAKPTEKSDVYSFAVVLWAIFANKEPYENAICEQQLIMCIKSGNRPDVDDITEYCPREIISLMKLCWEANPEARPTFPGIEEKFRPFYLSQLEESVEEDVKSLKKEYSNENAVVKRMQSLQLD

Turning to `COc1nc(C)c(-c2ccc3nc(NC(C)=O)cn3n2)cc1C(=O)NC(C)c1cc(C(F)(F)F)ccc1F` (centres unmarked) [Example 277, 5-{2-acetamidoimidazo[1,2-b]pyridazin-6-yl}-N-{1-[2-fluoro-5-(trifluoromethyl)phenyl]ethyl}-2-methoxy-6-methylpyridine-3-carboxamide], the IC50 in assay [1] amounted to 263 nM; in assay [2] it was 107 nM.
Turning to `COc1nc(C)c(-c2ccc3nc(NC(C)=O)cn3n2)cc1C(=O)NC(C)c1cc(OC(F)(F)F)ccc1F` (centres unmarked) [Example 278, 5-{2-acetamidoimidazo[1,2-b]pyridazin-6-yl}-N-{1-[2-fluoro-5-(trifluoromethoxy)phenyl]ethyl}-2-methoxy-6-methylpyridine-3-carboxamide, TFA], the IC50 worked out at 64 nM in assay [1] (TFA) and 6 nM in assay [2] (TFA).
In the same order, the values of `COc1nc(C)c(-c2ccc3nc(NC(C)=O)cn3n2)cc1C(=O)NC(C)c1cc(OC(F)(F)F)ccc1F` (centres unmarked) [Example 279, 5-{2-acetamidoimidazo[1,2-b]pyridazin-6-yl}-N-{1-[2-fluoro-5-(trifluoromethoxy)phenyl]ethyl}-2-methoxy-6-methylpyridine-3-carboxamide, TFA] are 51 nM and 47 nM.
As for `COc1nc(C)c(-c2ccc3nc(NC(C)=O)cn3n2)cc1C(=O)NCc1cc(F)cc(OC(F)(F)F)c1` [Example 280, 5-{2-acetamidoimidazo[1,2-b]pyridazin-6-yl}-N-{[3-fluoro-5-(trifluoromethoxy)phenyl]methyl}-2-methoxy-6-methylpyridine-3-carboxamide], the IC50 in assay [1] (Homo sapiens) was 36 nM; in assay [2], 5 nM.
The like results for `COc1nc(C)c(-c2ccc3nc(NC(C)=O)cn3n2)cc1C(=O)N(C)Cc1cccc(OC(F)(F)F)c1` [Example 281, 5-{2-acetamidoimidazo[1,2-b]pyridazin-6-yl}-2-methoxy-N,6-dimethyl-N-{[3-(trifluoromethoxy)phenyl]methyl}pyridine-3-carboxamide] were, in that order, 4 nM and 6 nM.
The like results for `COc1nc(C)c(-c2ccc3nc(NC(C)=O)cn3n2)cc1C(=O)N(C)Cc1ccccc1OC(F)(F)F` [Example 283, 5-{2-acetamidoimidazo[1,2-b]pyridazin-6-yl}-2-methoxy-N,6-dimethyl-N-{[2-(trifluoromethoxy)phenyl]methyl}pyridine-3-carboxamide] were, in that order, 67 nM and 16 nM.
Take `COc1nc(C)c(-c2ccc3nc(NC(C)=O)cn3n2)cc1C(=O)NCc1cc(F)c(F)cc1OCC1CC1` [Example 284, N-{[2-(cyclopropylmethoxy)-4,5-difluorophenyl]methyl}-5-{2-acetamidoimidazo[1,2-b]pyridazin-6-yl}-2-methoxy-6-methylpyridine-3-carboxamide]: the concentration for half-maximal inhibition (IC50) in assay [1] (Homo sapiens) and in assay [2] was 5 nM in each case.
`COc1nc(C)c(-c2ccc3nc(NC(C)=O)cn3n2)cc1C(=O)NCc1c(F)ccc(F)c1OC` [Example 285, N-[(3,6-difluoro-2-methoxyphenyl)methyl]-5-{2-acetamidoimidazo[1,2-b]pyridazin-6-yl}-2-methoxy-6-methylpyridine-3-carboxamide]: the results for the IC50 in assay [1] (Homo sapiens) and in assay [2] were 23 nM and 17 nM, respectively.
Consider `COc1nc(C)c(-c2ccc3nc(NC(C)=O)cn3n2)cc1C(=O)NCc1ccc(F)c(F)c1OCC1CC1` [Example 286, N-{[2-(cyclopropylmethoxy)-3,4-difluorophenyl]methyl}-5-{2-acelamidoimidazo[1,2-b]pyridazin-6-yl}-2-methoxy-6-methylpyridine-3-carboxamide], for which the figures for the half-maximal inhibitory concentration (IC50) in assay [1] and in assay [2] were 19 nM and 9 nM, respectively.
The like results for `COc1nc(C)c(-c2ccc3nc(NC(C)=O)cn3n2)cc1C(=O)NCc1cc(F)cc(F)c1OCC1CC1` [Example 287, N-{[2-(cyclopropylmethoxy)-3,5-difluorophenyl](deutero)methyl}-5-{2-acetamidoimidazo[1,2-b]pyridazin-6-yl}-2-methoxy-6-methylpyridine-3-carboxamide] were, in that order, 2 nM and 4 nM.

The IC50 is the point on the concentration scale where inhibition reaches its midpoint.

For the origin of these results see patent publication US11440913B2, “Aminoimidazopyridazines as kinase inhibitors” (BRISTOL-MYERS SQUIBB COMPANY, priority 2017, dated 2022).
